Source: publication PMC4873338 (Neuron, 2016)
Where two headings read alike, the source gives them in different places.

Columns and labels:
[1] = system: dopamine receptor(s) (DA-R) in s-LNv; settings: 2012, cited from earlier work
[2] = system: D1-like dopamine receptors in l-LNv; settings: via one or more D1-like dopamine receptors, ref Shang et al. 2011, Duvall and Taghert, 2012; cited from earlier work
[3] = system: Drosophila D1-like receptors expressed in hEK-293 cells; settings: hEK-293 cells expressing Drosophila D1-like receptor
[4] = system: D1-like dopamine receptors in l-LNv; experiment: EPAC-FRET cAMP imaging of l-LNv response to dopamine; format: cell-based, Drosophila
[5] = system: dopamine receptor(s) (DA-R) in s-LNv; settings: for Max Ampl DA ZT4 / Max Ampl DA ZT22 / EC50: Pdf > Epac50A

Q: For `NCCc1ccc(O)c(O)c1` [DA, dopamine], which “DA responsiveness on over-expression of AC3” value ([1]; s-LNv, ref Duvall and Taghert) is on record?
A: The value was “no effect on DA responsiveness”.

Q: What about the “cAMP increase in vivo” value ([1]; small LNv, ref Shang et al. 2011, Duvall and Taghert) of the same compound?
A: Its value is “generates cAMP increases in vivo”.

Q: What about the “cAMP increase in vivo” value [2] of the same compound?
A: Its value is “generates cAMP increases in vivo”.

Q: What about the β-ARR2-GFP translocation [3] of the same compound?
A: Its β-ARR2-GFP translocation is “potently recruited β-ARR2-GFP translocation”.

Q: And the “FRET responses to DA over the 24-hr period” value ([4]; 3 × 10^−05 M DA, N=33 brains, 178 ROIs, P=0.574)?
A: Its value is “did not significantly vary over the 24-hr time period tested”.

Q: What about the “Max Ampl DA ZT4” value ([4]; Pdf > Epac50A, LD 12:12, ZT4) of the same compound?
A: The value was 15.3 ± 1.3.

Q: What about the “Max Ampl DA ZT22” value ([4]; Pdf > Epac50A, LD 12:12, ZT22) of the same compound?
A: Its value is 16.0 ± 1.3.

Q: And the “rhythm of responsiveness to DA” value ([5]; 3 × 10^−05 M DA, s-LNv, N=36 brains, 124 ROIs)?
A: Its value is “peak phase in synchrony with the peak phase of PDF responsiveness, just after lights-on”.

Q: What about the “Max Ampl DA ZT4” value ([5]; s-LNv, LD 12:12, ZT4) of the same compound?
A: The value was 15.3 ± 1.2.

Q: What about the “Max Ampl DA ZT22” value ([5]; s-LNv, LD 12:12, ZT22) of the same compound?
A: The value was 14.7 ± 2.8.

Q: What about the “Max Ampl DA ZT4” value ([5]; rala[CA], s-LNv, LD 12:12, ZT4) of the same compound?
A: The value was 14.0 ± 1.4.

Q: What about the “Max Ampl DA ZT22” value ([5]; rala[CA], s-LNv, LD 12:12, ZT22) of the same compound?
A: The value was 13.6 ± 2.0.

Q: What about the “Max Ampl DA ZT4” value ([5]; rala[DN], s-LNv, LD 12:12, ZT4) of the same compound?
A: Its value is 13.6 ± 1.5.

Q: And the “Max Ampl DA ZT22” value ([5]; rala[DN], s-LNv, LD 12:12, ZT22)?
A: The value was 14.4 ± 1.9.

Q: And the EC50 ([5]; read-out: DA EC50 ZT4, rala[CA], s-LNv, LD 12:12, ZT4)?
A: The EC50 was 5.7 µM.

Q: What about the EC50 ([5]; read-out: DA EC50 ZT4, rala[DN], s-LNv, LD 12:12, ZT4) of the same compound?
A: The EC50 was 29 µM.

Q: And the EC50 ([5]; read-out: DA EC50 ZT22, rala[CA], s-LNv, LD 12:12, ZT22)?
A: Its EC50 is 6.4 µM.

Q: What about the “DA responsiveness after RNAi targeting of AC13E and of ACX-A” value ([5]; s-LNv, Suppl. Figure 2-top) of the same compound?
A: The value was “partially reduced DA responsiveness”.

Q: And the “attenuation of FRET response after peak” value ([5]; sustained exposure to DA)?
A: The value was “rapidly attenuated”.

Q: What about the “time to peak of FRET response” value ([5]; sustained exposure to DA, relation: within) of the same compound?
A: Its value is 1 to 2 min.
